# Literature values in patent US6156340A, “Orally administrable time release drug containing products” (Duquesne University of the Holy Ghost, priority 1996, dated 2000).
# Experiments:
# [1] = repeated oral administration, long term therapy
# [2] = not given; remark: listed apart in the source
smiles,measurement,setting,value
O=C(O)Cc1ccccc1Nc1c(Cl)cccc1Cl [diclofenac sodium],absorption,following oral administration,completely absorbed
same,metabolism,in vivo,extensive metabolism
same,elimination half-life in plasma,plasma,relatively short elimination half-life in plasma
same,side effects,[1],frequently causes gastrointestinal disturbances and may cause kidney failure
same,water solubility,[2],high water solubility
